Data reported in PubChem BioAssay (NCI).
Several values for one entry are separate records, joined by “and”; a condition that tells them apart may be missing. Equal entries are not always repeated.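 A five-concentration, 48-hour dose response in 96-well plates underlies each endpoint, interpolated linearly between surrounding concentrations. GI50 is the concentration that inhibits growth by half. The concentration for full growth arrest is given as TGI.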

Experiments:
Test in all cases: DTP human tumour cell line panel, 48 h
HCT-15 colon = tested on: HCT-15 colon
HCT-116 colon = tested on: HCT-116 colon
HT29 colon = tested on: HT29 colon
A549 NSCLC = tested on: A549 NSCLC
SK-MEL-5 melanoma = tested on: SK-MEL-5 melanoma
NCI-H460 lung = tested on: NCI-H460 lung
KM12 colon = tested on: KM12 colon
NCI-H23 lung = tested on: NCI-H23 lung
SF-539 CNS = tested on: SF-539 CNS
SK-OV-3 ovarian = tested on: SK-OV-3 ovarian
NCI-H522 lung = tested on: NCI-H522 lung
SW-620 colon = tested on: SW-620 colon
MDA-MB-435 = tested on: MDA-MB-435
ACHN renal = tested on: ACHN renal

SMILES	TGI (HCT-15 colon) [µM]	TGI (HCT-116 colon) [µM]	TGI (HT29 colon) [µM]	TGI (A549 NSCLC) [µM]	TGI (SK-MEL-5 melanoma) [µM]	TGI (NCI-H460 lung) [µM]	TGI (KM12 colon) [µM]	TGI (NCI-H23 lung)	TGI (SF-539 CNS) [µM]	TGI (SK-OV-3 ovarian) [µM]	TGI (NCI-H522 lung) [µM]	TGI (SW-620 colon) [µM]	TGI (MDA-MB-435) [µM]	TGI (ACHN renal) [µM]	GI50 (NCI-H460 lung)	GI50 (KM12 colon)	GI50 (NCI-H23 lung)	GI50 (SF-539 CNS)	GI50 (SK-OV-3 ovarian) [µM]
CC1=C2C3OC(=O)C(C)C3CCC2(C)C=CC1=Nc1ccccc1 (configuration not stated)	> 100	> 100	> 100	> 100	> 100	> 100	> 100	> 100 µM	> 100	> 100	> 100	> 100							
CCOC(=O)C(OP(=O)(OCC)OCC)C(F)(F)F (configuration not stated)	> 100	> 100	> 100			> 100	> 100	> 100 µM	> 100	> 100	> 100		> 100	> 100					
c1ccc([P+](c2ccccc2)(c2ccccc2)C2c3ccccc3-c3ccccc32)cc1	11	2.39	4.04	14.3	3.82	10.2		5.38 µM	6.98	4.33	6.06	16.2	3.18	7.79					
CCOC(=O)C(CCc1ncnc2c1ncn2Cc1ccccc1)(CCc1ncnc2c1ncn2Cc1ccccc1)C(=O)OCC	> 100	> 100	> 100	> 100	> 100	> 100	> 100	> 100 µM	94.6		> 100	> 100	> 100	> 100					
CC(=O)Nc1ccc(Sc2nnc(NC(C)=O)s2)cc1	> 100	> 100		> 100	> 100	> 100	> 100		> 100	> 100	> 100	> 100	> 100	> 100					
O=c1ccnc2ccc3n[nH][nH]c3c12	> 100	> 100	> 100	> 100	> 100	> 100	> 100	> 100 µM	> 100	> 100		> 100		> 100					
CCCCCCCCOC(=O)c1cc([N+](=O)[O-])c(Sc2ncnc3nc[nH]c23)c([N+](=O)[O-])c1	20.6	5.35	4.87	27.3	18.4	17.4	18	11.7 µM	5.8	25.3	2.41	8.31	> 38.4	10.2					
COc1cc2c[n+](C)c3c4cc(OC)c(OC)cc4ccc3c2cc1OC	> 100	> 100	> 100	> 100	> 100	> 100	> 100	> 100 µM and 77 µM	> 100	> 100	42.2	> 100	> 100	> 100	> 100 µM and 49.8 µM	> 100 µM and 33.3 µM	40.8 µM and 19.5 µM	71.3 µM and 29.9 µM	
C=CCCCCCCCCC(=O)O	192	225	227	214	183	191	107	274 µM	212	294	209	260							
CN(C(=O)c1ccc(OCCCC(=O)O)c(Cl)c1Cl)C1CCCC1	> 100	> 100	> 100	> 100	> 100	> 100	> 100	> 100 µM	> 100	> 100	> 100	> 100							
Cn1c(=O)c(Cl)c(N=[N+]=[N-])c2ccccc21	> 100	> 100	> 100	> 100	> 100	> 100	> 100	> 100 µM	> 100	> 100	> 100	> 100		> 100					
COC1=CC(=O)C2=C(C[C@@]3(C)C(=C2)C(CO)=CC[C@H]3O)C1=O	88.5	40.8	> 100	> 100	32.2	60.7	> 100	48.7 µM	34.7	> 100		60.6	41.2	33.1					
CC(=O)OCC1OC(n2nc(Cc3ccccc3)c(=S)[nH]c2=S)C(OC(C)=O)C(OC(C)=O)C1OC(C)=O (configuration not stated)	40.5	47.1	> 100	> 100	> 100	> 100	40.2	44.6 µM	67.8	> 100	47.5	> 100	36.7	> 100					
CNC(=O)NS(=O)(=O)c1ccc(C)cc1	> 100	> 100	> 100	> 100	> 100	> 100	> 100	> 100 µM	> 100	> 100	> 100	> 100		> 100					
O=c1oc2ccc([N+](=O)[O-])cc2cc1Br		> 100	> 100	> 100	> 100	> 100	> 100	> 100 µM	> 100		> 100	> 100	> 100	> 100					
O=[N+]([O-])c1cccc(N=Nc2c(O)ccc3ccccc23)c1	> 100	> 100	> 100	> 100	> 100		> 100	> 100 µM		> 100	> 100	> 100	> 100						
O=c1c([OH2+])c(-c2ccc(O)cc2[O-])oc2cc(O)cc([O-])c12.O=c1c([OH2+])c(-c2ccc(O)cc2[O-])oc2cc(O)cc([O-])c12.[Ti+4]	> 100	> 100	> 100	> 100	> 100	> 100	> 100	> 100 µM	> 100	> 100	> 100	> 100		> 100					> 100
CCN1CCC(O)(c2ccc(O)cc2)C(C(=O)c2ccc(O)cc2)C1 (configuration not stated)	32.1	54.9	64.9		22.7	> 100	45.4	44.4 µM		> 100		12.3	33.3	34					
O=C1O/C(=C\c2ccc(O)cc2)C(c2ccc(O)c(Cl)c2)=C1Cl	> 100		> 100	> 100	43.2	> 100	> 100	76.6 µM	> 100	> 100	53.3	> 100	81.7	> 100					
CCOC(=O)C(=O)NC12CC3CC(CC(C3)C1)C2	> 100	> 100	> 100	> 100	> 100	> 100	> 100	> 100 µM	> 100	> 100	> 100	> 100		> 100					
O=[N+]([O-])C(=C/c1cccs1)/C(=C\c1cccs1)[N+](=O)[O-]	0.614	2.49	6.13	9.59	2.94	5.31	13.4	3.52 µM	0.417	8.04		21.2	2.23	2.68					
CC[C@H](C)[C@H](NC(=O)[C@@]1(O)[C@H](O)[C@]2(CC)C=CCN3CC[C@@]4(c5cc(Br)c(OC)cc5N(C)[C@@H]14)[C@@H]32)C(=O)OC	> 100	> 100	30.5	> 100	87.4	> 100	> 100	> 100 µM	91.3	> 100	> 100	> 100	71.3	> 100					
COC(=O)C1=NN2c3ccccc3CN([C@@H](C)c3ccccc3)C(=O)[C@@H]2[C@H]1c1ccccc1	> 100	> 100	> 100	> 100	> 100	> 100	> 100	> 100 µM	> 100	> 100	> 100	> 100	> 100	> 100					
